Experimental data taken from PubChem BioAssay (NCI).
Values joined by “and” are separate entries in the source; they are usually repeats but may differ in a detail not shown here. Equal values may be shown once.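 All cell lines were grown in 96-well plates and treated with compound for 48 hours. The concentration for 50% growth inhibition is given as GI50. Definition used: TGI = concentration required for complete inhibition of growth.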

Legend:
Test in all cases: NCI tumour cell line growth inhibition, 48 h
UACC-257 melanoma = system: UACC-257 melanoma
MALME-3M melanoma = system: MALME-3M melanoma
T-47D breast = system: T-47D breast
M14 melanoma = system: M14 melanoma
TK-10 renal = system: TK-10 renal
EKVX NSCLC = system: EKVX NSCLC
RXF 393 renal = system: RXF 393 renal
SNB-75 CNS = system: SNB-75 CNS
OVCAR-3 ovarian = system: OVCAR-3 ovarian
A549 NSCLC = system: A549 NSCLC

Row | Structure (SMILES) | GI50 (UACC-257 melanoma) [µM] | TGI (UACC-257 melanoma) | GI50 (MALME-3M melanoma) | TGI (MALME-3M melanoma) | GI50 (T-47D breast) | TGI (T-47D breast) | GI50 (M14 melanoma) | TGI (M14 melanoma) | GI50 (TK-10 renal) | TGI (TK-10 renal) | GI50 (EKVX NSCLC) [µM] | TGI (EKVX NSCLC) | GI50 (RXF 393 renal) | TGI (RXF 393 renal) | GI50 (SNB-75 CNS) | TGI (SNB-75 CNS) | GI50 (OVCAR-3 ovarian) | TGI (OVCAR-3 ovarian) | TGI (A549 NSCLC) | GI50 (A549 NSCLC) [µM]
1 | COc1cc2cc(Oc3ccc(NC(=O)Nc4ccc(Cl)c(C(F)(F)F)c4)cc3)c(C)nc2cc1OC | 0.71 | 2.36 µM | 1.33 µM | 5.71 µM | 1.21 µM | 7.9 µM | 1.25 µM | 5.25 µM | 1.32 µM | 6.19 µM | 1.01 | 3.75 µM | 1.33 µM | 4.21 µM | 1.03 µM | 4.9 µM | 1.16 µM | 4.45 µM | 4.16 µM | 
2 | C[C@@H](Oc1ccc2[nH]nc(/C=C/c3cnn(CCO)c3)c2c1)c1c(Cl)cncc1Cl | 1.43 | 6.29 µM | 1.86 µM | 4.68 µM | 1.31 µM | 7.69 µM | 0.739 µM | 3.11 µM | 0.251 µM | 1.68 µM |  |  | 0.0288 µM | 0.267 µM | 0.159 µM | 0.561 µM | 0.462 µM | 3.56 µM | 5.79 µM | 0.0938
3 | O=C1C(=O)c2ccccc2C(O)=C1CC=C(Cl)Cl |  | 58.2 µM and 65.8 µM and 65.3 µM | 16.2 µM and 28.2 µM | 51.8 µM and 42.5 µM and 94.5 µM | 11 µM and 20.1 µM | 49.3 µM and 213 µM and > 100 µM | 29.4 µM and 9.94 µM | > 90.7 µM and 108 µM and > 100 µM | 25.7 µM and 20.7 µM | 98.6 µM and 195 µM and > 100 µM | 13.4 | 57.1 µM and 206 µM | 13.8 µM and 13.7 µM | 76.9 µM and 203 µM and 97.9 µM | 21.3 µM and 6.06 µM | 65 µM and 169 µM and > 100 µM | 9.76 µM and 15 µM | 38.9 µM and 70.8 µM and 70.3 µM | > 78.7 µM and 129 µM and > 100 µM | 5.63
4 | CN1CCN(CCNc2ccc(CO)c3sc4ccccc4c(=O)c23)CC1 |  | 9.84 µM |  | 12 µM | 3.37 µM | 19.4 µM |  | 12 µM |  | 20.1 µM | 7.48 | 20.7 µM | 0.0726 µM | 1.82 µM |  | 14.5 µM |  | 18.3 µM | 11.3 µM | 
5 | CC(=O)/C=C/C1=C(c2cccs2)c2ccccc2CC1 | 19.7 | 41.7 µM | 28.3 µM | 54.9 µM | 23.7 µM | 53.5 µM | 18.8 µM | 41.7 µM | 32 µM | > 100 µM | 35.1 | > 100 µM | 31.8 µM | 78.9 µM | 25.6 µM | 68.1 µM | 29.7 µM | 63.6 µM | > 100 µM | 37.3
6 | O=C(O)c1cscc1Cc1cccs1 |  | > 100 µM |  | > 100 µM |  | > 100 µM |  | > 100 µM |  | > 100 µM |  | > 100 µM |  | > 100 µM |  | > 100 µM |  | > 100 µM | > 100 µM | 
7 | CNC(=O)OC1C(O[C@H]2C[C@H]3[C@@H]4CC=C5C[C@@H](O)CC[C@]5(C)[C@H]4CC[C@]3(C)[C@H]2[C@H](C)C(=O)CCC(C)C)OCC(O)C1OC1OCC(O)C(O)C1OC(=O)c1ccc(OC)cc1 (stereo partly specified) | 0.0237 | 0.105 µM | 0.0517 µM | 2.33 µM | 0.035 µM | 3.69 µM | 0.0137 µM | 0.0757 µM | 0.793 µM | 7.69 µM | 0.0396 | 3.47 µM | < 0.00275 µM | 0.0111 µM | 0.00628 µM | 4.97 µM | 1.03 µM | 6.1 µM | 4.96 µM | 0.0178
8 | COc1ccc(/C=C/C(=O)c2cc3c(N)c(C(=O)Nc4ccccc4C)sc3nc2C)cc1 | 16.1 | > 50 µM | 0.248 µM | > 50 µM | 0.322 µM | > 50 µM |  |  | 2.48 µM | > 50 µM | 1.88 | > 50 µM | 0.14 µM | 0.423 µM | 0.17 µM | 1.85 µM | 0.168 µM | 0.955 µM | > 50 µM | 0.905
9 | CCCCCCCCCCCCCC(=O)C(C)N (stereo unspecified) | 18.6 | 34.1 µM | 14 µM | 29.3 µM | 2.17 µM | 5.5 µM | 8.66 µM | 22.1 µM | 3.81 µM | 13.2 µM | 2.13 | 4.75 µM | 4.46 µM | 17 µM | 6.56 µM | 20.7 µM | 14.1 µM | 28.3 µM | 22.5 µM | 8.94
10 | CC(O)(CNS(=O)(=O)c1ccccc1)c1ccccc1 (stereo unspecified) |  |  |  | > 100 µM |  | > 100 µM |  | > 100 µM |  | > 100 µM |  | > 100 µM |  | > 100 µM |  | > 100 µM |  | > 100 µM | > 100 µM | 
11 | O=[N+]([O-])/C=C\c1c[nH]c2ccc(OCc3ccccc3)cc12 |  | 3.73 µM |  | 25.9 µM |  | 12.4 µM |  | 4.49 µM |  | 23.1 µM |  | 29.3 µM |  | 6.73 µM |  |  |  | 22.8 µM | 14.8 µM | 
12 | O=[N+]([O-])c1ccc(/C=C(/c2ccc([N+](=O)[O-])o2)S(=O)(=O)c2ccccc2)o1 |  | 3.66 µM |  | 7.45 µM |  | > 100 µM |  | 25.5 µM |  | 15.2 µM |  | 22.8 µM |  | > 100 µM |  | 33.7 µM |  | 29 µM | 38.2 µM | 
13 | COc1ccc(Cl)cc1NC(=O)c1cccc([N+](=O)[O-])c1O |  | > 67.9 µM |  | 19.3 µM |  | > 100 µM |  | > 100 µM |  | > 100 µM |  | 51.4 µM |  | 53.2 µM |  | > 88.3 µM |  | 33 µM | 45.2 µM | 
14 | CS(=O)(=O)CCn1c(=O)c(Oc2ccc(F)cc2F)cc2cnc(NC3CCOCC3)nc21 | > 25 | > 25 µM | > 25 µM | > 25 µM | > 25 µM | > 25 µM | > 25 µM | > 25 µM | > 25 µM | > 25 µM |  |  | > 25 µM | > 25 µM | > 25 µM | > 25 µM | > 25 µM | > 25 µM | > 25 µM | > 25
15 | COC(=O)OCc1ccc2c(c1)C(=O)c1c-2n(CCCBr)c(=O)c2cc([N+](=O)[O-])ccc12 | > 100 | > 100 µM | > 100 µM | > 100 µM | > 100 µM | > 100 µM |  |  | 19.1 µM | 61.3 µM | 74.3 | > 100 µM | 0.16 µM | 8.45 µM | 14.9 µM | 34.4 µM | > 100 µM | > 100 µM | > 100 µM | > 100
